Data reported in the NIST ThermoML archive (doi:10.1021/je900852t).
± gives the expanded uncertainty stated by the source.

Conditions: Crystal; visual observation

c1ccc2cc3ccccc3cc2c1 [anthracene]
Normal melting temperature: 215 ± 1 °C
